Measurements published in patent US20150239889A1, “PYRAZOLOPYRIMIDINE COMPOUND” (MITSUBISHI TANABE PHARMA CORPORATION, priority 2012, published 2015).

Tests used:
human HIF-PHD2 = target: T1, human HIF-PHD2 (Homo sapiens, UniProt Q9GZT9); assay: HIF-PHD inhibition assay (fluorescence polarization), human HIF-PHD2; assay type: biochemical; conditions: 2-oxoglutaric acid 3.33 μmol/L
T1 construct: purchased CrystalGenomics Ltd
Outline: (§1)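 A 5′-fluoresceinamide-labelled substrate with aminocaproic acid linker is used. Enzyme activity is computed by subtracting pre-enzyme polarization from post-enzyme polarization, expressed in mP.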

Hep3B cells = assay: EPO production assay (ELISA of culture supernatant); assay type: cell-based; conditions: Homo sapiens, 3 μmol/L test compound, 48 hours, relative to control (0.1% DMSO), read-out: EPO production stimulation rate with 3 μmol/L test compound
Outline: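 Values are fold EPO production at 3 μmol/L compound relative to untreated control, quantified by ELISA of culture supernatant. Hep3B cells were exposed for 48 h in MEM containing 0.5% FBS and 0.1% DMSO.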

human HIF-PHD3 = target: T2, human HIF-PHD3 (Homo sapiens, UniProt Q9H6Z9); assay: HIF-PHD inhibition assay (fluorescence polarization), human HIF-PHD3; assay type: biochemical; conditions: 2-oxoglutaric acid 166 μmol/L
T2 construct: purchased CrystalGenomics Ltd
Outline: as §1

T2 sequence (Q9H6Z9 whole entry): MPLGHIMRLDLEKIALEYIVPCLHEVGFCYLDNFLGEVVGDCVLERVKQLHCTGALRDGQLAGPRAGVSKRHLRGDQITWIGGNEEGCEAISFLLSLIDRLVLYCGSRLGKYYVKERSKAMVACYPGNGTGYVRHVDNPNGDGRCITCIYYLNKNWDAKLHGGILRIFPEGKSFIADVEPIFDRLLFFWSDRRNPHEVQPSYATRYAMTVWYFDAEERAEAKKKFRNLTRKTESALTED
T1 sequence (Q9GZT9 2-426 limits assumed): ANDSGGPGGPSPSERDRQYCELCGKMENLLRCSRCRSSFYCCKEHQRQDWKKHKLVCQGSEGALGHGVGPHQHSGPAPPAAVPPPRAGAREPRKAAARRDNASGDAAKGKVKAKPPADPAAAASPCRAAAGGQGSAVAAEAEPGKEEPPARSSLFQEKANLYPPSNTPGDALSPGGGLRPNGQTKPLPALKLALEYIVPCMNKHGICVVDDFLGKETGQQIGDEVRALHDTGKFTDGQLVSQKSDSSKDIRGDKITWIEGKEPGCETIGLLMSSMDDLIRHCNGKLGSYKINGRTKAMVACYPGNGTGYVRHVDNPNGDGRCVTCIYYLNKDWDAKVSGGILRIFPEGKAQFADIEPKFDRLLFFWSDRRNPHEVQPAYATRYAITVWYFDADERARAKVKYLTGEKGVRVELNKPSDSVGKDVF

| SMILES | IC50 (human HIF-PHD2) [nM] | IC50 (human HIF-PHD3) [nM] | fold induction at 3 µM (Hep3B cells) |
| --- | --- | --- | --- |
| Cc1ccc2cc(CCn3ncc4nc(-n5cc(C(=O)O)cn5)nc(O)c43)ccc2c1C [Example 129] | 21 | 160 | 162 |
| O=C(O)c1cnn(-c2nc(O)c3c(cnn3CCc3ccc(-c4ccccc4)cc3)n2)c1 [Example 130] | 6 | 130 | 19 |
| CC(C)(Cc1ccc2ccccc2c1)Cn1ncc2nc(-n3cc(C(=O)O)cn3)nc(O)c21 [Example 133] | 110 | 370 | 3.9 |
| O=C(O)c1cnn(-c2nc(O)c3c(cnn3CCC(c3ccccc3)c3ccccc3)n2)c1 [Example 134] | 23 | 360 | 25 |
| O=C(O)c1cnn(-c2nc(O)c3c(cnn3C3CCCCC3)n2)c1 [Example 135] | 74 | 380 | 6.1 |
| O=C(O)c1cnn(-c2nc(O)c3c(cnn3CC3CCCCC3)n2)c1 [Example 136] | 31 | 320 | 8.5 |
| O=C(O)c1cnn(-c2nc(O)c3c(cnn3C[C@H]3CC[C@@H](C(F)(F)F)CC3)n2)c1 [Example 138] | 160 | 600 | 2.9 |
| C[C@H]1CC[C@H](Cn2ncc3nc(-n4cc(C(=O)O)cn4)nc(O)c32)CC1 [Example 139] | 30 | 520 | 1.6 |
| CC[C@H]1CC[C@H](Cn2ncc3nc(-n4cc(C(=O)O)cn4)nc(O)c32)CC1 [Example 140] | 14 | 830 | 6.2 |
| CC(C)[C@H]1CC[C@H](Cn2ncc3nc(-n4cc(C(=O)O)cn4)nc(O)c32)CC1 [Example 141] | 14 | 270 | 1.2 |
| CC(C)(C)[C@H]1CC[C@H](Cn2ncc3nc(-n4cc(C(=O)O)cn4)nc(O)c32)CC1 [Example 142] | 25 | 360 | 15 |
| O=C(O)c1cnn(-c2nc(O)c3c(cnn3C[C@H]3CC[C@@H](Oc4ccccc4F)CC3)n2)c1 [Example 147] | 5.3 | 330 | 4 |
| O=C(O)c1cnn(-c2nc(O)c3c(cnn3C[C@H]3CC[C@H](Oc4cccc(F)c4)CC3)n2)c1 [Example 148] | 10 | 250 | 11 |
| O=C(O)c1cnn(-c2nc(O)c3c(cnn3CC3Cc4ccccc4C3)n2)c1 [Example 154] | 29 | 290 | 5.4 |
| O=C(O)c1cnn(-c2nc(O)c3c(cnn3C[C@H]3CC[C@H](c4ccccc4)CC3)n2)c1 [Example 155] | 10 | 70 | 11 |
| O=C(O)c1cnn(-c2nc(O)c3c(cnn3C[C@H]3CC[C@H](c4ccc(Cl)cc4)CC3)n2)c1 [Example 156] | 20 | 160 | 24 |
| CC1(Cn2ncc3nc(-n4cc(C(=O)O)cn4)nc(O)c32)CCCCC1 [Example 157] | 40 | 720 | 4 |
| O=C(O)c1cnn(-c2nc(O)c3c(cnn3CC3CCCCCCC3)n2)c1 [Example 159] | 110 | 380 | 4.5 |
| O=C(O)c1cnn(-c2nc(O)c3c(cnn3CC[C@H]3CC[C@H](c4ccccc4)CC3)n2)c1 [Example 163] | 19 | 120 | 13 |
| O=C(O)c1cnn(-c2nc(O)c3c(cnn3CCC3Cc4ccccc4C3)n2)c1 [Example 164] | 21 | 210 | 8.8 |
| O=C(O)c1cnn(-c2nc(O)c3c(cnn3CCCCc3ccc(Cl)cc3)n2)c1 [Example 165] | 12 | 210 | 15 |
| O=C(O)c1cnn(-c2nc(O)c3c(cnn3CCCOc3cccc(C(F)(F)F)c3)n2)c1 [Example 174] | 32 | 570 | 9.9 |
| O=C(O)c1cnn(-c2nc(O)c3c(cnn3CCCOc3ccc(C(F)(F)F)cc3)n2)c1 [Example 175] | 21 | 390 | 15 |
| O=C(O)c1cnn(-c2nc(O)c3c(cnn3CCCOc3ccc(C(F)(F)F)cc3Cl)n2)c1 [Example 176] | 19 | 170 | 22 |
| O=C(O)c1cnn(-c2nc(O)c3c(cnn3CCCOc3ccc(Cl)c(C(F)(F)F)c3)n2)c1 [Example 177] | 28 | 170 | 9.1 |
| CC(C)(C)c1ccc(OCCCn2ncc3nc(-n4cc(C(=O)O)cn4)nc(O)c32)cc1 [Example 178] | 24 | 570 | 37 |
| CC(C)(C)c1cccc(OCCCn2ncc3nc(-n4cc(C(=O)O)cn4)nc(O)c32)c1 [Example 179] | 45 | 160 | 14 |

Continued by falling IC50 (human HIF-PHD2), values first:

| IC50 (human HIF-PHD2) [nM] | IC50 (human HIF-PHD3) [nM] | SMILES | fold induction at 3 µM (Hep3B cells) |
| --- | --- | --- | --- |
| 72 | 700 | O=C(O)c1cnn(-c2nc(O)c3c(cnn3CCCc3ccc4ccccc4c3)n2)c1 [Example 131] | 8.6 |
| 71 | 380 | O=C(O)c1cnn(-c2nc(O)c3c(cnn3CCC3CCCCC3)n2)c1 [Example 160] | 3.6 |
| 67 | 400 | CC(C)(CCn1ncc2nc(-n3cc(C(=O)O)cn3)nc(O)c21)c1ccc2ccccc2c1 [Example 132] | 2.6 |
| 63 | 340 | O=C(O)c1cnn(-c2nc(O)c3c(cnn3CCCOc3cc(C(F)(F)F)cc(C(F)(F)F)c3)n2)c1 [Example 183] | 7.5 |
| 59 | 900 | O=C(O)c1cnn(-c2nc(O)c3c(cnn3CCC3CCOCC3)n2)c1 [Example 153] | 1.5 |
| 52 | 400 | CC1(C)C(Cn2ncc3nc(-n4cc(C(=O)O)cn4)nc(O)c32)C1(C)C [Example 162] | 18 |
| 39 | 410 | O=C(O)c1cnn(-c2nc(O)c3c(cnn3C[C@H]3CC[C@@H](Oc4ccc(F)cc4)CC3)n2)c1 [Example 150] | 9 |
| 35 | 220 | O=C(O)c1cnn(-c2nc(O)c3c(cnn3CCCOc3ccc(OCc4ccccc4)c(F)c3)n2)c1 [Example 181] | 34 |
| 34 | 250 | O=C(O)c1cnn(-c2nc(O)c3c(cnn3CCC3CCN(c4ccc(C(F)(F)F)cc4)CC3)n2)c1 [Example 172] | 19 |
| 31 | 150 | O=C(O)c1cnn(-c2nc(O)c3c(cnn3CCCC3CCCCC3)n2)c1 [Example 161] | 3.1 |
| 31 | 130 | O=C(O)c1cnn(-c2nc(O)c3c(cnn3CCCCCc3ccccc3)n2)c1 [Example 166] | 8.1 |
| 24 | 310 | O=C(O)c1cnn(-c2nc(O)c3c(cnn3CC3CCCCCC3)n2)c1 [Example 158] | 1.2 |
| 23 | 200 | O=C(O)c1cnn(-c2nc(O)c3c(cnn3CCCN(c3ccccc3)c3ccccc3)n2)c1 [Example 168] | 66 |
| 22 | 56 | Cc1cc(OCCCn2ncc3nc(-n4cc(C(=O)O)cn4)nc(O)c32)cc(C)c1Cl [Example 182] | 9.1 |
| 20 | 260 | O=C(O)c1cnn(-c2nc(O)c3c(cnn3C[C@H]3CC[C@H](C(F)(F)F)CC3)n2)c1 [Example 137] | 9.8 |
| 20 | 140 | O=C(O)c1cnn(-c2nc(O)c3c(cnn3C[C@H]3CC[C@H](Oc4ccc(C(F)(F)F)cc4)CC3)n2)c1 [Example 152] | 20 |
| 19 | 280 | O=C(O)c1cnn(-c2nc(O)c3c(cnn3CC3CCN(c4ccc(C(F)(F)F)cc4)CC3)n2)c1 [Example 170] | 19 |
| 17 | 54 | O=C(O)c1cnn(-c2nc(O)c3c(cnn3C[C@H]3CC[C@H](Oc4ccc(F)cc4)CC3)n2)c1 [Example 149] | 22 |
| 17 | 140 | O=C(O)c1cnn(-c2nc(O)c3c(cnn3CCCn3ccc4ccccc43)n2)c1 [Example 167] | 2.1 |
| 15 | 1300 | C[C@@H](C1CCCCC1)n1ncc2nc(-n3cc(C(=O)O)cn3)nc(O)c21 [Example 144] | 4.3 |
| 15 | 300 | O=C(O)c1cnn(-c2nc(O)c3c(cnn3C[C@H]3CC[C@H](Oc4ccccc4F)CC3)n2)c1 [Example 146] | 2.6 |
| 14 | 160 | O=C(O)c1cnn(-c2nc(O)c3c(cnn3CC3CCN(c4ccc(C(F)(F)F)cn4)CC3)n2)c1 [Example 171] | 11 |
| 13 | 220 | Cc1ccc(O[C@H]2CC[C@H](Cn3ncc4nc(-n5cc(C(=O)O)cn5)nc(O)c43)CC2)cc1 [Example 151] | 38 |
| 13 | 190 | O=C(O)c1cnn(-c2nc(O)c3c(cnn3CCCOc3ccccc3C(F)(F)F)n2)c1 [Example 173] | 7.7 |
